Measured values: ChEMBL document CHEMBL1130376, “Effects of taxoids from Taxus cuspidata on microtubule depolymerization and vincristine accumulation in MDR cells” (Bioorg Med Chem Lett, 1997)
≈ marks a conversion by molar mass, not a printed value.

Tests used:
[1] = Vincristine (VCR) accumulation in multidrug resistant human ovarian cancer 2780 AD cells at a concentration 10 ug/mL; assay type: functional
[2] = Cytotoxicity against human epidermoid carcinoma KB cells; assay type: functional, cell-based
L1210 = experiment: Cytotoxicity against murine leukemia L1210 cells; assay type: functional, cell-based, Mus musculus
[3] = Vincristine (VCR) accumulation in multidrug resistant human ovarian cancer 2780 AD cells at a concentration 1 ug/mL; assay type: functional
[4] = Mus musculus, L1210, read-out: IC50

Q: What does the source list for C=C1[C@@H](OC(=O)/C=C/c2ccccc2)C[C@H](OC(C)=O)[C@]2(C)[C@@H]1C[C@@H]1C[C@H](OC(C)=O)C(C)=C([C@@H](OC(C)=O)[C@@H]2OC(C)=O)C1(C)C?
A: vincristine accumulation (% of control) [1]: 798%; IC50 [2]: > 10 µg/mL; IC50 (L1210; [4]): 4.9 µg/mL (≈ 7.53 µM); vincristine accumulation (% of control) [3]: 266%

Q: Which “vincristine accumulation (% of control)” value [1] does the source give for C=C1[C@@H](O)C[C@H](OC(C)=O)[C@@]2(C)[C@@H](OC(C)=O)[C@H](OC(C)=O)[C@]3(O)[C@@]4(C)CO[C@]3(C)C(=O)C[C@H]4[C@@H](OC(C)=O)[C@H]12 here?
A: 213%

Q: And the IC50 [2]?
A: > 10 µg/mL

Q: And the IC50 (L1210; [4])?
A: > 10 µg/mL

Q: And the “vincristine accumulation (% of control)” value [3]?
A: 225%

Q: What does the source list for C=C1[C@@H](O)C[C@H](OC(C)=O)[C@@]2(COC(=O)c3ccccc3)[C@@H](OC(C)=O)[C@H](OC(C)=O)[C@]3(O)[C@@]4(C)CO[C@]3(C)C(=O)C[C@H]4[C@@H](OC(C)=O)[C@H]12 [TAXININ M]?
A: vincristine accumulation (% of control) [1]: 169%; IC50 [2]: 9.4 µg/mL (≈ 13.7 µM); IC50 (L1210; [4]): > 10 µg/mL; vincristine accumulation (% of control) [3]: 115%

Q: Which results are given for CC(=O)O[C@H]1C[C@@]2(O)[C@H]3OC[C@]4(OC(C)=O)[C@H](O)C[C@H](OC(C)=O)[C@](C)([C@H]34)[C@@H](OC(C)=O)[C@H](OC(C)=O)C(=C1C)C2(C)C?
A: vincristine accumulation (% of control) [1]: 234%; IC50 [2]: 8.8 µg/mL (≈ 14.4 µM); IC50 (L1210; [4]): 4.5 µg/mL (≈ 7.37 µM); vincristine accumulation (% of control) [3]: 167%

Q: Which results are given for C=C1[C@@H](OC(=O)/C=C/c2ccccc2)C[C@H](OC(C)=O)[C@]2(C)[C@@H]1C[C@]1(C(C)(C)O)C[C@H](OC(C)=O)C(C)=C1[C@@H](OC(C)=O)[C@@H]2OC(C)=O [TAXUSPINE J]?
A: vincristine accumulation (% of control) [1]: 842%; IC50 [2]: > 10 µg/mL; IC50 (L1210; [4]): > 10 µg/mL; vincristine accumulation (% of control) [3]: 258%

Q: For C=C1[C@@H](OC(=O)/C=C/c2ccccc2)CC[C@@]2(C)[C@@H](OC(C)=O)[C@H](OC(C)=O)[C@@]34[C@H](C)C(=O)C[C@@H]([C@@H](OC(C)=O)C132)C4(C)C (stereo partly specified), which “vincristine accumulation (% of control)” value [1] is on record?
A: 768%

Q: What about the IC50 [2] of the same compound?
A: > 10 µg/mL

Q: What about the IC50 (L1210; [4]) of the same compound?
A: 5.8 µg/mL (≈ 9.56 µM)

Q: And the “vincristine accumulation (% of control)” value [3]?
A: 246%

Q: What does the source list for CC(=O)O[C@H]1C[C@@H]2OC[C@@]2(OC(C)=O)[C@H]2[C@H](OC(C)=O)[C@]3(O)C[C@H](OC(=O)CC(c4ccccc4)N(C)C)C(C)=C([C@@H](OC(=O)c4ccccc4)[C@H](OC(C)=O)[C@]12C)C3(C)C (stereo partly specified)?
A: IC50 [2]: > 10 µg/mL; IC50 (L1210; [4]): 7.8 µg/mL (≈ 9.2 µM)

Q: Which “vincristine accumulation (% of control)” value [1] does the source give for C=C1[C@@H](O)C[C@H](OC(C)=O)[C@@]2(C)[C@@H](OC(C)=O)[C@H](OC(=O)c3ccccc3)C3=C(C)[C@@H](OC(C)=O)C[C@@]3(C(C)(C)O)[C@@H](OC(C)=O)[C@H]12 here?
A: 313%

Q: What about the IC50 [2] of the same compound?
A: > 10 µg/mL

Q: And the IC50 (L1210; [4])?
A: > 10 µg/mL

Q: And the “vincristine accumulation (% of control)” value [3]?
A: 158%

Q: With CC(=O)O[C@H]1C(=O)[C@@]2(C)[C@H]([C@H](OC(=O)c3ccccc3)[C@]3(O)C[C@H](OC(=O)[C@H](O)[C@@H](NC(=O)c4ccccc4)c4ccccc4)C(C)=C1C3(C)C)[C@]1(OC(C)=O)CO[C@@H]1C[C@@H]2O (mixture of isomers) [PACLITAXEL] as the compound, how does the “vincristine accumulation (% of control)” value [1] read?
A: 138%

Q: What about the IC50 (L1210; l1210) of the same compound?
A: 0.026 µg/mL

Q: What about the “vincristine accumulation (% of control)” value [3] of the same compound?
A: 132%

Q: With CC(=O)O[C@H]1C[C@@]2(O)[C@@H](OC(C)=O)[C@@H]3[C@@]4(CO4)[C@@H](OC(C)=O)C[C@H](OC(C)=O)[C@@]3(C)[C@@H](OC(C)=O)[C@H](OC(C)=O)C(=C1C)C2(C)C as the compound, how does the “vincristine accumulation (% of control)” value [1] read?
A: 135%

Q: What about the IC50 [2] of the same compound?
A: > 10 µg/mL

Q: What about the IC50 (L1210; [4]) of the same compound?
A: > 10 µg/mL

Q: And the “vincristine accumulation (% of control)” value [3]?
A: 119%

Q: With C=C1[C@@H](OC(=O)CC(c2ccccc2)N(C)C)CC[C@@]2(C)[C@@H](OC(C)=O)[C@H](OC(C)=O)[C@@]34[C@H](C)C(=O)C[C@@H]([C@@H](OC(C)=O)C132)C4(C)C (stereo partly specified) as the compound, how does the “vincristine accumulation (% of control)” value [1] read?
A: 567%

Q: And the IC50 [2]?
A: 1.6 µg/mL (≈ 2.45 µM)

Q: And the IC50 (L1210; [4])?
A: > 10 µg/mL

Q: What about the “vincristine accumulation (% of control)” value [3] of the same compound?
A: 174%

Q: Which “vincristine accumulation (% of control)” value [1] does the source give for C=C1[C@@H](O)C[C@H](O)[C@@]2(C)[C@@H](OC(C)=O)[C@H](OC(C)=O)C3=C(C)C(=O)C[C@@]3(C(C)(C)O)[C@@H](OC(C)=O)[C@H]12 here?
A: 191%

Q: What about the IC50 [2] of the same compound?
A: > 10 µg/mL

Q: What about the IC50 (L1210; [4]) of the same compound?
A: > 10 µg/mL

Q: And the “vincristine accumulation (% of control)” value [3]?
A: 151%

Q: What does the source list for CC(=O)O[C@H]1C[C@H]2[C@@H](OC(C)=O)/C=C3\C[C@](C)(C(=O)[C@H](O)C(=C1C)C2(C)C)[C@@H](OC(C)=O)C[C@@H]3OC(=O)/C=C/c1ccccc1 [TAXUSPINE B]?
A: vincristine accumulation (% of control) [1]: 713%; IC50 [2]: > 10 µg/mL; IC50 (L1210; [4]): > 10 µg/mL; vincristine accumulation (% of control) [3]: 219%

Q: What does the source list for C=C1[C@@H](OC(=O)/C=C/c2ccccc2)CC[C@@]2(C)[C@@H](O)[C@H](OC(C)=O)C3=C(C)C(=O)C[C@@H]([C@@H](OC(C)=O)[C@H]12)C3(C)C?
A: vincristine accumulation (% of control) [1]: 372%; IC50 [2]: 0.17 µg/mL (≈ 0.301 µM); IC50 (L1210; [4]): 1.1 µg/mL (≈ 1.95 µM); vincristine accumulation (% of control) [3]: 173%

Q: Which results are given for CCCC(=O)NC(c1ccccc1)[C@@H](O)C(=O)O[C@H]1C[C@@]2(O)[C@@H](OC(=O)c3ccccc3)[C@@H]3[C@]4(OC(C)=O)CO[C@@H]4C[C@H](O)[C@@]3(C)C(=O)[C@H](OC(C)=O)C(=C1C)C2(C)C (stereo partly specified)?
A: IC50 [2]: 0.016 µg/mL (≈ 0.0195 µM); IC50 (L1210; [4]): 0.21 µg/mL (≈ 0.256 µM)

Q: For CCCCCC(=O)NC(c1ccccc1)[C@@H](O)C(=O)O[C@H]1C[C@@]2(O)[C@@H](OC(=O)c3ccccc3)[C@@H]3[C@]4(OC(C)=O)CO[C@@H]4C[C@H](O)[C@@]3(C)C(=O)[C@H](O)C(=C1C)C2(C)C (stereo partly specified), which IC50 [2] is on record?
A: 0.0017 µg/mL (≈ 0.00211 µM)

Q: What about the IC50 (L1210; [4]) of the same compound?
A: 0.24 µg/mL (≈ 0.298 µM)

Q: Which IC50 [2] does the source give for CC(=O)O[C@H]1C[C@@H]2OC[C@@]2(OC(C)=O)[C@H]2[C@H](OC(=O)c3ccccc3)[C@]3(O)C[C@H](O)C(C)=C([C@@H](O)[C@H](O)[C@]12C)C3(C)C here?
A: 0.08 µg/mL (≈ 0.136 µM)

Q: What about the IC50 (L1210; [4]) of the same compound?
A: 0.27 µg/mL (≈ 0.459 µM)

Q: With CCCCCC(=O)NC(c1ccccc1)[C@@H](O)C(=O)O[C@H]1C[C@@]2(O)[C@@H](OC(=O)c3ccccc3)[C@@H]3[C@]4(OC(C)=O)CO[C@@H]4C[C@H](O)[C@@]3(C)C(=O)[C@H](OC(C)=O)C(=C1C)C2(C)C (stereo partly specified) as the compound, how does the IC50 [2] read?
A: 0.0053 µg/mL (≈ 0.00625 µM)

Q: What about the IC50 (L1210; [4]) of the same compound?
A: 0.21 µg/mL (≈ 0.248 µM)

Q: With CC(=O)O[C@@]12CO[C@@H]1C[C@H](O)[C@@]1(C)C(=O)[C@H](O)C3=C(C)[C@@H](OC(=O)[C@H](O)C(NC(=O)C4CCC4)c4ccccc4)C[C@@](O)([C@@H](OC(=O)c4ccccc4)[C@H]21)C3(C)C (stereo partly specified) as the compound, how does the IC50 [2] read?
A: 0.0048 µg/mL (≈ 0.00608 µM)

Q: And the IC50 (L1210; [4])?
A: 0.95 µg/mL (≈ 1.2 µM)

Q: What does the source list for CC(=O)O[C@H]1C(=O)[C@@]2(C)[C@H]([C@H](OC(=O)c3ccccc3)[C@]3(O)C[C@H](OC(=O)[C@H](O)[C@@H](NC(=O)c4ccccc4)c4ccccc4)C(C)=C1C3(C)C)[C@]1(OC(C)=O)CO[C@@H]1C[C@@H]2O [PACLITAXEL]?
A: vincristine accumulation (% of control) [1]: 56%; vincristine accumulation (% of control) [3]: 83%

Q: Which IC50 [2] does the source give for CC(=O)O[C@@]12CO[C@@H]1C[C@H](O)[C@@]1(C)C(=O)[C@H](O)C3=C(C)[C@@H](OC(=O)[C@H](O)C(NC(=O)c4ccccc4)c4ccccc4)C[C@@](O)([C@@H](OC(=O)c4ccccc4)[C@H]21)C3(C)C (stereo partly specified) here?
A: 0.015 µg/mL (≈ 0.0185 µM)

Q: And the IC50 (L1210; [4])?
A: 0.88 µg/mL (≈ 1.08 µM)

Q: For COc1ccc(CCN(C)CCCC(C#N)(c2ccc(OC)c(OC)c2)C(C)C)cc1OC (stereo unspecified) [VERAPAMIL], which “vincristine accumulation (% of control)” value [1] is on record?
A: 739%

Q: What about the “vincristine accumulation (% of control)” value [3] of the same compound?
A: 254%

Q: What does the source list for C=C1[C@@H](OC(C)=O)CC[C@@]2(C)[C@@H](OC(C)=O)[C@H](OC(C)=O)C3=C(C)[C@@H](OC(C)=O)C[C@@H]([C@@H](OC(C)=O)[C@H]12)C3(C)C?
A: IC50 [2]: > 10 µg/mL; IC50 (L1210; [4]): > 10 µg/mL
